These results are taken from PMC7655722 (Organic letters, 2020).

The test system of data set [1] is cancer stem cells (CSCs) in MDA-MB-231 cell line. The note with it: MDA-MB-231 cell line ref 12; cited from earlier work.
For data set [2], the system named is chronic lymphocytic leukemia (CLL). The note with it: chronic lymphocytic leukemia (CLL) ref 8; cited from earlier work.
For the next data set, the system named is P335. As to conditions: P335 ref 6; cited from earlier work.
The next data set relates to MDA-MB-231. Briefly: cells. The class given is cell-based. As to conditions: for IC50: Homo sapiens.
In another data set the test system is MCF10A. Briefly: cells. The class given is cell-based. As to conditions: Homo sapiens, MCF-10A, read-out: IC50, cell viability.
Another data set can be described thus: in vitro. It is filed as cell-based. As to conditions: human.
The test system of data set [3] is stem-like cells with epithelial-mesenchymal transition (EMT) properties. As to conditions: cited from earlier work.
A further data set concerns glioblastoma Hs683. As to conditions: glioblastoma Hs683 ref 9, 10; cited from earlier work.

Like-named read-outs stand apart in the source and are kept apart here.

For `CC(C)=CCC[C@H](C)[C@@]1(O)CC[C@]2(C)C[C@H]3[C@H](C(=O)C[C@@]3(C)O)/C(C=O)=C\C[C@H]21` [compound 2], the “effect on CD44/CD24-positive population” value in data set [1] is reported as “significantly reducing the CD44/CD24-positive population”.
As for `CC(C)=C[C@H]1C[C@H](C)[C@]2(CC[C@]3(C)C[C@H]4[C@H](C(=O)C[C@@]4(C)O)/C(C=O)=C\C[C@H]32)O1` [OpA, ophiobolin A], the IC50 is 0.001 µM in data set [2]; 0.063 µM in the data set with P335; 0.069 ± 0.024 µM in the data set with MDA-MB-231 (MDA-MB-231, read-out: IC50, cell viability); roughly 0.069 µM in the data set with MDA-MB-231 (MDA-MB-231, read-out: cytotoxicity (IC50) as quoted in text); 0.198 ± 0.076 µM in the data set with MCF10A; roughly 0.2 µM in the data set “in vitro”. Further, the IC50 in the data set with glioblastoma Hs683 is 0.62 µM. Besides, in the data set on MDA-MB-231 (MDA-MB-231 vs MCF-10A), the “selectivity between cancer vs non-cancer cell line” value is listed as ~ 3 fold. Further, the “induction of cell death in stem-like cells with EMT properties” value in data set [3] is listed as “specifically induces cell death”. In addition, in data set [1], the “effect on CD44/CD24-positive population” value is on record as “significantly reducing the CD44/CD24-positive population”.

As a reminder, the IC50 is the concentration that gives 50% inhibition.
